Experimental data reported in ChEMBL document CHEMBL1201862, “PubChem BioAssay data set” (2004).
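All cell lines were grown in 96-well plates and treated with compound for 48 hours. Here, GI50 denotes the concentration required for 50% inhibition of growth.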 Active and inactive are the calls of the source. No stated cut-off is given here; in the data, active = GI50 up to about 1.1 µM and inactive = higher.

Columns and labels:
Assay in all cases: growth of human tumour cells (NCI), 48 h
MCF7 = system: MCF7
Malme-3M = system: Malme-3M
LOX IMVI = system: LOX IMVI
ACHN = system: ACHN
DU-145 = system: DU-145
HT-29 = system: HT-29
M14 = system: M14
KM12 = system: KM12
SF-295 = system: SF-295
HL-60 = system: HL-60
MDA-MB-231 = system: MDA-MB-231
PC-3 = system: PC-3
CCRF-CEM = system: CCRF-CEM
BT-549 = system: BT-549
SF-268 = system: SF-268
IGROV-1 = system: IGROV-1
NCI-H23 = system: NCI-H23
SK-MEL-28 = system: SK-MEL-28
SW-620 = system: SW-620
NCI-H226 = system: NCI-H226

Measured: GI50

O=C(O)c1nnsc1-c1csnn1
inactive: MCF7 > 100 µM | Malme-3M > 100 µM | LOX IMVI > 100 µM | ACHN > 100 µM | DU-145 > 100 µM | HT-29 > 100 µM | M14 > 100 µM | KM12 > 100 µM | SF-295 > 100 µM | HL-60 > 100 µM | MDA-MB-231 > 100 µM | PC-3 > 100 µM | CCRF-CEM > 100 µM | BT-549 > 100 µM | SF-268 > 100 µM | IGROV-1 > 100 µM | NCI-H23 > 100 µM | SK-MEL-28 > 100 µM | SW-620 > 100 µM | NCI-H226 > 100 µM

C[C@H]1C(=O)C2=C[C@H]1CCC(=O)[C@]1(C)CCCC(C)(C)[C@H]1C[C@H]2O
inactive: MCF7 13.7 µM | Malme-3M 20.6 µM | LOX IMVI 17.3 µM | ACHN 17.3 µM | DU-145 28.2 µM | HT-29 13.9 µM | M14 13.2 µM | KM12 19 µM | SF-295 33.3 µM | HL-60 16 µM | MDA-MB-231 5.38 µM | PC-3 33.3 µM | CCRF-CEM 15.8 µM | BT-549 28.2 µM | SF-268 20.5 µM | IGROV-1 37.9 µM | NCI-H23 21.8 µM | SK-MEL-28 40.1 µM | SW-620 14.9 µM | NCI-H226 19.7 µM

CNc1ncc(-c2nnnn2-c2ccccc2)c(CN(C)C)n1
inactive: MCF7 > 100 µM | Malme-3M > 100 µM | LOX IMVI > 100 µM | ACHN > 100 µM | DU-145 > 100 µM | HT-29 > 100 µM | M14 > 100 µM | KM12 > 100 µM | SF-295 > 100 µM | HL-60 > 100 µM | MDA-MB-231 > 100 µM | PC-3 > 100 µM | CCRF-CEM > 100 µM | BT-549 > 100 µM | SF-268 > 100 µM | IGROV-1 > 100 µM | NCI-H23 > 100 µM | SK-MEL-28 > 100 µM | SW-620 > 100 µM | NCI-H226 > 100 µM

N#C[BH2-][n+]1ccc(C(=O)NNCc2cccc(C(F)(F)F)c2)cc1
inactive: MCF7 5.64 µM | Malme-3M 3.54 µM | LOX IMVI 4.26 µM | ACHN 33.7 µM | DU-145 33.1 µM | HT-29 6.01 µM | M14 8.75 µM | KM12 4.76 µM | SF-295 6.68 µM | HL-60 23.4 µM | MDA-MB-231 10.4 µM | PC-3 13.8 µM | CCRF-CEM 28.4 µM | BT-549 14.3 µM | SF-268 4.82 µM | IGROV-1 30.1 µM | NCI-H23 12.2 µM | SK-MEL-28 5.5 µM | SW-620 25.5 µM | NCI-H226 3.27 µM
